≈ marks a conversion by molar mass, not a printed value.
Legend:
[1] = Shake flask LogD (SFLogD) assay; type: physicochemical; settings: for logD: pH = 7.4, octanol/water shake flask, average of 2 runs unless otherwise stated
Method: (§1) Permeability assay (RRCK): Ralph Russ canine kidney cells were used for permeability measurements using a cell monolayer in 96-transwell format. The detailed assay conditions have been reported previously.9 Test compounds were added to the donor wells and a buffer was added to the receiver wells to start the apical to basolateral transport assay.
(§2) Time 0 and 1.5 h incubation samples were taken for LC-MS/MS analysis. Apparent permeability (Papp) was calculated using the equation below (1), where Area is the surface area of the cell monolayer (0.0625 cm2), CD(0) is the […]

[2] = Chemical (pH) stability assay; type: physicochemical; settings: 24 h under acidic, neutral, and basic conditions
Method: Chemical stability assay: The chemical stability assay was performed in 384 well plate format (volume = […]).
Plates were prefilled with 70 µL of the appropriate buffer (pH 1.2, 7.4, 10) after which the wells were spiked with 5 µL of test compounds (1 mM). Samples were incubated for their timepoint of interest (1 h, 4 h, 24 h) at 37 °C after which the samples were diluted in MeCN (and pH 12.8 buffer for experiment at pH 1.2), mixed with an internal standard and […]
(§3) Aqueous buffer preparation: pH 3: 50 µL of 1N hydrochloric acid was added to 500 mL of deionized water. The solution was titrated with 1N hydrochloric acid to pH 3, and back titrated with 1N sodium hydroxide. pH 7.4: 100 mM sodium phosphate buffer is made by adding 56.4 g of dibasic sodium phosphate and 10.3 g of monobasic sodium phosphate to 4 L of deionized water. 250 µL of 100 mM sodium phosphate buffer was diluted with 250 µL of deionized water. The solution was titrated with 1N hydrochloric acid to pH 7.4, and back titrated with 1N sodium hydroxide. pH 10: Fisher Scientific pH 10 buffer (SB116-500) containing potassium hydroxide, potassium carbonate, and potassium […]
as §2

[3] = Kinetic solubility; type: physicochemical; settings: for solubility at 24 h: aqueous pH buffer, aqueous buffer, kinetic from dmso stock, 37 °C, 600 µM start
Method: as §3
pH 12.8: 30 mL of 1N NaOH was added to 200 mL of deionized water. The solution was titrated with 1N sodium hydroxide to pH 12.8 and back titrated with 1N hydrochloric acid.
Kinetic solubility: Samples were diluted to 600 µM in the appropriate pH buffer (pH: 3, 7.4, 10) and to 600 µM (assumed 100% solubility) in a DMSO standard. Samples were mixed thoroughly and incubated at 37 °C for 24 h.
Following incubation, pH samples were transferred to a […] PVDF (low binding) and filtered to remove any precipitate. The filtrate was collected and analyzed via MS/MS. The ratio of MS response (DMSO:pH) is taken and multiplied by the initial 600 µM concentration to determine the concentration (solubility) of the samples in pH buffers. […]
as §1, §2

[4] = Permeability assay (RRCK); type: in vitro ADME, canine; settings: dog, MDCK, apical to basolateral, average of 2 runs, footnote b = only one replicate
[5] = Experimental pKaH (amine basicity); type: physicochemical; settings: for pKa: Table S2; for pKaH: text and Figure 6
From the text: The influence of basicity is an ongoing rationale for inclusion of the oxetanes in drug candidates, providing the potential to attenuate off-target effects including hERG channel inhibition. […] As comparison against the benzamide analogue is not possible, we instead looked at the head-to-head comparison between amino-oxetane 4a and benzylamine 18 (Figure ).

[6] = test system: human hepatocytes; experiment: Human Hepatocyte (HHEP) stability assay, clearance; type: in vitro ADME; settings: human hepatocytes, 0.5 million cells/mL, 1 µM test compound
Method: Human Hepatocyte (HHEP) assay: The high throughput HHEP stability assay was performed in a 384-well format (Greiner Bio-One, Monroe, NC). The cryopreserved HHEP were thawed, and re-suspended in Williams E medium (WEM, custom formula number 91-5233EC; Invitrogen, Grand Island, NY) supplemented with HEPES and Na2CO3. The cells were counted using the Trypan Blue exclusion method. A multidrop liquid dispenser (Multidrop DW, Thermo Scientific, Waltham, MA) was used to add the HHEP suspensions to the 384-well plates. The cell plates were covered and transferred to a Cytomat 2 incubator (ThermoFisher) and Biomek i7 (Beckman Coulter, Indianapolis, IN), equipped with three 3position MéCour heat exchangers. Test compounds were diluted on the Biomek i7 with buffer (15 µL) and added to the HHEP (30 µL). The final incubation contained 0.5 million cells/mL and 1 µM test compound in 45 µL total volume containing 0.01% DMSO. The incubation was carried out at 37 °C in the Cytomat 2 incubator (relative humidity ≥ 90%, 5% CO2/95% air). At various time points (2, 4, 11, 45, 75, 120, and 240 min), the plate was pulled out from the incubator by the Biomek i7 robot and put on the MéCour heated exchanger. Samples (3 µL) were transferred to a 384-well plate containing 30 µL acetonitrile with an internal standard (IS) to quench the reaction. Water (60 µL) was added to the quenched plate to dilute the organic solvent content for LC-MS/MS analysis. The plates were centrifuged at 3000 rpm for 10 min at 4 °C, sealed and subsequently analyzed using LC-MS/MS without further transfer of the supernatant.
Propranolol (CYP2D6), midazolam (CYP3A) and triazolam (CYP3A, low clearance), naloxone (UGT2B7), carbazeran (AO), and verapamil (CYP3A, CYP2C8) were used as positive controls. For CYP inhibition study, 1 mM ABT (a pan-cYP inhibitor) was pre-incubated with HHEP for 30 minutes at 37 °C before adding test compounds. Values are n >3 unless […]
as §1, §2

| logD [1] | Kinetic solubility, in words ([3]; pH 3) | Papp at 1.5 h [4] | pKa [5] | Change in SFlogD of the carbonyl-to-oxetane replacement ([1]; pH 7.4, amino-oxetane versus matched benzamide) | SMILES | pH stability, in words [2] | solubility at 24 h ([3]; pH 3) | solubility at 24 h ([3]; pH 7.4) | solubility at 24 h ([3]; pH 10) | Kinetic solubility, in words ([3]; across acidic, neutral, and basic conditions, compared with benzamide counterpart) | pKaH [5] | HHEPG clearance [6] |
| --- | --- | --- | --- | --- | --- | --- | --- | --- | --- | --- | --- | --- |
| 3.6 | markedly improved solubility | 25.8 ×10⁻⁶ cm/s | – | – | COc1ccc(C2(NCC34C[C@H]5C[C@@H](C3)C[C@@H](C4)C5)COC2)cc1 [1a, N-(((3R,5R,7R)-Adamantan-1-yl)Methyl)-3-(4-Methoxyphenyl)Oxetan-3-Amine] | reduced stability under neutral and basic conditions | 533 µM (≈ 175 µg/mL) | < 8.9 µM | < 0.3 µM | – | – | – |
| 1.55 | – | 36.7 ×10⁻⁶ cm/s | 3.08 | +0.44 | O=S(=O)(c1ccccc1)c1ccc(C2(N3CCOCC3)COC2)cc1 [10a, 4-(3-(4-(Phenylsulfonyl)Phenyl)Oxetan-3-yl)Morpholine] | – | – | – | – | – | – | 4 μL min^−1 million^−1 |
| – | – | – | 7.25 | – | COc1ccc(CN2CCOCC2)cc1 [compound 18, 4-(4-Methoxybenzyl)Morpholine] | – | – | – | – | – | 7.25 | – |

| SMILES | logD [1] | Kinetic solubility, in words ([3]; pH 3) | Papp at 1.5 h [4] | pKa [5] | Change in SFlogD of the carbonyl-to-oxetane replacement ([1]; pH 7.4, amino-oxetane versus matched benzamide) | pH stability, in words [2] | solubility at 24 h ([3]; pH 3) | solubility at 24 h ([3]; pH 7.4) | solubility at 24 h ([3]; pH 10) | Kinetic solubility, in words ([3]; across acidic, neutral, and basic conditions, compared with benzamide counterpart) | pKaH [5] | HHEPG clearance [6] |
| --- | --- | --- | --- | --- | --- | --- | --- | --- | --- | --- | --- | --- |
| COc1ccc(C2(N3CCOCC3)COC2)cc1 [4a, 4-(3-(4-Methoxyphenyl)Oxetan-3-yl)Morpholine] | 1.17 | – | 39.2 ×10⁻⁶ cm/s | 4.61 | – | – | 486 µM (≈ 121 µg/mL) | 556 µM (≈ 139 µg/mL) | 492 µM (≈ 123 µg/mL) | solubility comparable to their analogous benzamides | 4.61 | 4 μL min^−1 million^−1 |

— paper PMC12951551, “Do Amino-Oxetanes Resemble Amides? A Matched Molecular Pairs Property and Structural Comparison” (Journal of Medicinal Chemistry, 2026)
